Counter-ions that a name gives are not always drawn. Like-named read-outs stand apart in the source and are kept apart here.
Tests used:
[1] = Fluoride-triggered chemiluminescence of silyl-protected dioxetane
Description: However, the chemiluminescent decomposition of this dioxetane can be conveniently triggered at room temperature by removal of the silyl-protecting with fluoride ion to generate the unstable, aryloxide form which cleaves to yield intense blue light.

[2] = format: physicochemical; settings: for half-life: in xylene, read-out: t1/2 at 25° C. (converted); for half-life / k(sec^-1) at 25° C.: 25° C.
Description: Rates for thermal decomposition of the stable dioxetanes were monitored by the decay of chemiluminescence of aerated solutions. A cylindrical Pyrex vial equipped with magnetic stir bar was filled with 3-4 mL of the reaction solvent, sealed with a Teflon-lined screw cap and placed in the thermostatted sample block of the chemiluminescence-measuring luminometer. Temperature control was provided by an external circulating water bath. Appropriate values for the instrument gain and optical slit size were selected. […]. The vial was sealed with a Teflon-lined screw cap to prevent evaporation when high temperatures were used. Measurement of the signal was begun by opening the shutter. The chemiluminescent decay was generally recorded for at least three half-lives. Calculation of the first-order rate constant (k) from the In (Intensity) vs. time data was performed by a computer program utilizing a standard least-squares treatment. The correlation coefficient (r) was typically at least 0.999 and k varied less than 5% between replicate samples.
Activation parameters for decomposition of the dioxetanes were calculated from plots of In k vs. 1/T (Arrhenius eq.) or In k/t vs. 1/T (Eyring eq.) by a standard least-squares linear regression analysis.
Activation Energies for Thermal Decomposition of Dioxetanes

[3] = Base-triggered chemiluminescence of dioxetanes 2a/2b in DMSO, water, CTAB micelles and micelles with fluorescent co-surfactant
Description: The chemiluminescence quantum yield (.PHI.CL) for the decomposition of dioxetanes is defined as the ratio of einsteins of chemiluminescence emitted to moles of dioxetane decomposed. Sufficient energy is released during the reaction from the reaction enthalpy (ΔHR) plus the Arrhenius activation energy (Ea) to populate the singlet excited state of one of the carbonyl cleavage products. Therefore, the maximum quantum yield is 1.0. Another parameter of interest is the chemiexcitation quantum yield (.PHI.CE) which is defined as the ratio of excited states formed to dioxetane decomposed. The chemiexcitation quantum yield is related to the chemiluminescence quantum yield via the fluorescence quantum yield of the dioxetane cleavage (.PHI.F) through the equation: .phi.CL =.phi.CE X .phi.F.
(§1) The same procedure as those employed in the measurement of the decay kinetics was used for the determination of chemiluminescence quantum yields with the following modifications. An accurately measured aliquot of a dioxetane stock solution of known concentration was added to 3 mL of the pre-thermostatted organic solvent or aqueous buffer. The reaction was then triggered by adding the appropriate chemical reagent or enzyme. The total light intensity was integrated by a photon-counting luminometer using an RCA A-31034A gallium-arsenide PMT cooled to -78° C.
Spectra of the chemiluminescence from chemically or enzymatcally triggered dioxetanes were obtained by conducting the reaction in a 1-cm square quartz cuvette in the sample compartment of a Spex Fluorolog spectrofluorometer at ambient temperature. Correction for the decay of the chemiluminescence intensity during the wavelength scan was made by accumulating the spectrum in a ratio mode so that the observed spectrum was divided by the signal from an auxiliary detector (EMI 9781B) which measures the total signal as a function of time. The monochromator bandpass was typically 18 nm. For weakly emitting samples, several identical scans were performed and added together to improve the signal-to-noise ratio.
1. Triggering the Chemiluminescence of Hydroxy-Substituted Dioxetane 2a with Base.
2. […] Cationic surfactants such as cetyltrimethylammonium bromide (CTAB) can be used to increase rates for chemical triggering of chemiluminescence from appropriately substituted dioxetanes in aqueous solution. […] The dioxetane is solubilized in the micelles formed by the surfactant and NaOH is added to initiate the chemiluminescence. […] Typically, the experiments were carried out with [2b]=9.1×10^-5 M, [CTAB]=2×10^-3 M, and [OH^- ]=9.1×10^-5 M at 37° C.
Similar experiments were conducted with the benzothiazamide surfactant 4. […] Enzymatic Triggering of Phosphate-Substituted Dioxetane 2c.

[4] = system: Alkaline Phosphatase from Human Blood Serum; assay: Triggering the chemiluminescence of 2c with alkaline phosphatase from human blood serum; format: biochemical
Description: 1. Triggering the Chemiluminescence of 2c with Alkaline Phosphatase from Human Blood Serum. A stock solution of dioxetane 2c was prepared in dioxane/water (1:1 v/v) by photooxygenation of 1c. A sample of fresh blood was drawn from a healthy donor and the red blood cells removed by centrifugation to provide serum for the experiments. Treatment of 3 mL of a 10^-5 M solution of 2c in 0.75 M 2-amino-2-methyl-1-propanol (221) buffer (pH 10.3) at 37° C. with 100 μL of serum led to the typical intensity vs. time profile shown in FIG. 3 where the serum is injected at time zero. Under these conditions the light intensity reaches a constant level of approximately 2.3×10^4 counts/sec. The background luminescence signal from non-enzymatic hydrolysis of 2c is less than 0.05% of the enzyme-generated value. […] The light intensity at any other time point can also be conveniently used to provide a direct measure of the enzyme concentration (FIG. 5). [drawing 31]

[5] = system: Alkaline Phosphatase from Bovine Intestinal Mucosa; assay: Triggering the chemiluminescence of 2c with alkaline phosphatase from bovine intestinal mucosa; format: biochemical
Description: as §1
2. Triggering the Chemiluminescence of 2c with Alkaline Phosphatase from Bovine Intestinal Mucosa. Alkaline phosphatase from bovine intestinal mucosa was obtained from Sigma Chemical Co. as a suspension of 5.1 mg of protein per mL of 3.2 M (NH4)2 SO4 solution. […] 3. Triggering the Chemiluminescence of 2c with Alkaline Phosphatase: Enhanced Chemiluminescence Efficiency via Intermolecular Energy Transfer in Aqueous Micelles. […] Alkaline phosphatase experiments with dioxetane 2c were conducted at 37° C. with 3 mL of a solution containing: 2c (4.3×10^-5 M), 221 buffer (0.75 M, pH 9.1), Mg(OAc)2 (8.0×10^-4 M), CTAB (1.13×10^-3 M), and fluorescein surfactant 3 (5.6×10^-5 M).
To test the sensitivity of this chemiluminescence method for evaluating concentrations of alkaline phosphatase in solution, a series of experiments were carried out using enzyme stock solutions prepared by dilutions of the commercial sample obtained from Sigma. A conservative estimate of the concentration of phosphatase in the sample was made by assuming that the 5.1 mg of protein per mL in the sample was 100% pure alkaline phosphatase. A molecular weight of 140,000 as also used in calculating molar amounts of enzyme. The conditions were the same as described above with 2c, CTAB, and fluorescer 3 except that the final quantities of enzyme in the 3 mL solutions were:
Enzymatic triggering experiments such as those described above were also carried out in Immumlon™ microtitre wells from Dynatech, Inc. made of transparent polystyrene. The wells were used individually and placed in a light-tight holder which could be thermostatted. The chemiluminescence was detected at the bottom of the well using a fiber optic connected to the photon-counting luminometer described previously. This experimental set-up allowed much smaller reaction volumes to be used. For example, a series of experiments using dioxetane 2c, CTAB, and 3 in 200 μL of 221 buffer with amounts of alkaline phosphatase ranging from 5×10^-15 to 2×10^-18 moles (or 2 attomoles) were carried out. […] A more realistic assumption for the purity of the enzyme sample might be 10%.

S-antigen = assay: Chemiluminescent ELISA for S-antigen with dioxetane 2c and alkaline phosphatase conjugate
Description: 4. Chemiluminescent Enzyme-Linked Assays. Enzymatic triggering of appropriately substituted dioxetanes provides an ultrasensitive detection method for enzyme-linked biological assays. For example, phosphate-substituted dioxetane 2c can be used with enzyme linked immunoassays and DNA probes that utilize alkaline phosphatase as the marker for detection. Previous detection methods make use of substrates which develop a color or become fluorescent upon reaction with this enzyme. The sensitivity of the chemiluminescent technique with dioxetane 2c is illustrated by an enzyme-linked immunosorbant assay (ELISA) for the retinal protein, S-antigen. Using procedures of L. A. Donoso (L. A. Donoso, C. F. Merryman, K. E. Edelberg, R. Naids, and C. Kalsow, Investigative Ophthalmology & Visual Science, 26, 561 (1985)), a series of 7 Immulon™ wells were coated with varying amounts of S-antigen (112, 56, 28, 14, 7, 3, 1.3 ng), reacted with a monoclonal antibody (MAbA9-C6) developed in mouse, and finally reacted with anti-mouse IgG coupled to alkaline phosphatase. A chemiluminescence assay of each well was then conducted individually by adding 100 μL of 221 buffer (0.75 M, pH 9.1) containing Mg(OAc)2 (8.0×10^-4 M), CTAB (1.13×10^-3 M), and fluorescein surfactant 3 (5.6×10^-5 M). […] The reagent background luminescence is very low and constant at 15 - 20 counts/sec (FIG. 13). […] Following the experiments with the luminometer, the wells containing the same solution were subsequently used for a photographic detection experiment (FIG. 15). The 7 wells were placed in a holder and incubated for 30 minutes at 37° C. and then photographed at that temperature with ASA 3000 Polaroid™Type 57 film for 15 min in a light-tight incubator. […] The reproducibility of the photographic assay is illustrated in FIG. 16. Four wells coated with 50 ng of antigen were treated with buffer and dioxetane as above, incubated for 1 hour at 45° C., and then photographed with the film for 30 sec at that temperature.

[6] = cited from earlier work
[7] = thermal decomposition in xylene
[8] = base, CTAB 1.5×10^-3 M with fluorescein surfactant 3 (9×10^-5 M), 37° C.
[9] = benzothiazamide surfactant 4 as co-surfactant, similar experiments with 2b/CTAB/base

**Q.** Which chemiluminescence efficiency [1] does the source give for `COC1(c2cccc(O[Si](C)(C)C(C)(C)C)c2)OOC12C1CC3CC(C1)CC2C3` (centres unmarked) here?
**A.** 25%

**Q.** And the chemiluminescence quantum yield [1]?
**A.** 0.25

**Q.** What about the “efficiency for the formation of the singlet excited ester” value ([1]; corrected for fluorescence quantum yield of the ester) of the same molecule?
**A.** 57%

**Q.** And the “maximum of the chemiluminescence spectrum” value ([1]; fluoride, DMSO)?
**A.** 470 nm

**Q.** And the “decomposition on the laboratory bench” value (in o-xylene, several months)?
**A.** no detectable decomposition

**Q.** And the activation energy (thermal decomposition)?
**A.** 28.4 kcal/mol

**Q.** Which results are given for `COC1(c2cccc(OC(C)=O)c2)OOC12C1CC3CC(C1)CC2C3` (centres unmarked) [2b, 4-(3-Acetoxyphenyl)-4-methoxyspiro[1,2-dioxetane-3,2'-adamantane]]?
**A.** half-life [2]: 4750 days; Ea [2, 7]: 30.4; Log A [2, 7]: 13.6; k(sec^-1) at 25° C. [2, 7]: 1.73e-09 s⁻¹; increase in the chemiluminescence quantum yield ([3]; CTAB above cmc vs water, 37° C.): 19 fold; chemiluminescence quantum yield (.PHI.CL) ([3]; base in DMSO): 0.25; light yield (chemiluminescence quantum yield) ([3]; base in water): 8.9×10^-6; chemiluminescence efficiency [3, 8]: 1.4%; chemiluminescence quantum yield (.PHI.CL) [3, 8]: 0.014; chemiluminescence quantum yield (.PHI.Cl) ([3]; base, CTAB above critical micelle concentration, 37° C.): 1.7×10^-4; increase over the luminescence in the absence of CTAB and 3 ([3]; base, CTAB with fluorescein surfactant 3, 37° C.): 500 fold

**Q.** What does the source list for `COC1(c2cccc(OP(=O)(O)O)c2)OOC12C1CC3CC(C1)CC2C3` (centres unmarked) [2c, 4-Methoxy-4-(3-phosphatephenyl)spiro[1,2-dioxetane-3,2'-adamantane], disodium salt]?
**A.** Ea ([2]; Arrhenius plot, o-xylene, 80° to 120° C.): 32.5 kcal/mol; half-life [2]: 6940 days; Ea [2, 7]: 32.5; Log A [2, 7]: 14.9; k(sec^-1) at 25° C. [2, 7]: 1.19e-09 s⁻¹; light intensity (constant level) ([4]; 10^-5 M 2c, 100 μL serum, 221 buffer pH 10.3, 37° C.): approximately 2.3×10^4 counts/sec; light intensity at the plateau vs enzyme concentration ([4]; 100 to 1 μL of serum): directly proportional to the enzyme concentration; background luminescence signal from non-enzymatic hydrolysis, of enzyme-generated value ([4]; 221 buffer pH 10.3, 37° C.): less than 0.05%; period of chemiluminescence ([5]; 12 pg/mL protein, CTAB and 3, 37° C.): 45 min; detection of alkaline phosphatase ([5]; 200 μL 221 buffer, CTAB and 3, enzyme purity of 10% assumed): less than 0.2 attomoles; chemiluminescence quantum yield ([5]; 221 buffer pH 9.1, 37° C., no CTAB): 3.1×10^-5; period over which light intensity increases ([5]; CTAB and fluorescer, depending on enzyme concentration): 30 to 60 min; background signal from non-enzymatic hydrolysis ([5]; buffer/co-micelle environment): only a few; chemiluminescence quantum yield (.PHI.Cl) ([5]; with CTAB (1.13×10^-3 M)): 2.1×10^-4; increase compared to the enzymatic reaction in the absence of CTAB and 3 ([5]; with CTAB and fluorescein surfactant 3): 500 fold; chemiluminescence quantum yield (.PHI.Cl) ([5]; with CTAB and fluorescein surfactant 3 (5.6×10^-5 M), pH 9.1, 37° C.): 0.015; chemiluminescence efficiency ([5]; with CTAB and fluorescein surfactant 3, pH 9.1, 37° C.): 1.5%; integrated light intensity vs amount of antigen (S-antigen; 1.3 to 112 ng S-antigen): correlates with the amount of antigen coated on the well; reagent background luminescence (S-antigen; 2c 1.36×10^-4 M, CTAB and 3, pH 9.1, 37° C.): 15 - 20 counts/sec; photographic detection, control well with buffer and dioxetane only (S-antigen; ASA 3000 Polaroid film): not visible

**Q.** For `COC1(c2cccc(O)c2)OOC12C1CC3CC(C1)CC2C3` (centres unmarked) [aryloxide-substituted dioxetane], which half-life (aryloxide form, 25° C.) is on record?
**A.** 5 s

**Q.** Which chemiluminescence efficiency [3, 9] does the source give for `CCCCCCCCCCCCCCCCNC(=O)c1nc2ccc(O)cc2s1` [compound 4, 1-Hexadecyl-6-hydroxy-2-benzothiazamide] here?
**A.** 0.3%

**Q.** What about the λmax [3, 9] of the same molecule?
**A.** 506 nm

**Q.** Which “decomposition rate relative to protonated form (X=OH)” value ([6]; 25° C.) does the source give for `Oc1ccc(C23OCCOC2(c2ccccc2)OO3)cc1` (centres unmarked) [deprotonated dioxetane (X=O^-)] here?
**A.** 5.7×10^6 times

**Q.** Which results are given for `Oc1ccc(C23OCCOC2(c2ccccc2)OO3)cc1` (centres unmarked) [hydroxy-substituted dioxetane (X=OH)]?
**A.** half-life for decomposition at room temperature ([6]; 25° C.): 2.38 days; luminescence with base ([6]; base at -30° C.): a flash of blue light; luminescence upon heating ([6]; elevated temperatures): very low levels of luminescence

Source: patent US4959182A, “Method and compositions providing enhanced chemiluminescence from 1,2-dioxetanes” (priority 1989, dated 1990)
